Measured values as given in publication PMC4312198 (Biomaterials, 2014).

Legend:
Hela cells = test: MTS cytotoxicity and combination index, Hela; format: cell-based; details: 72 h
[1] = system: SKOV3 ovarian cancer tumor; test: Tissue biodistribution of Pt; format: in vivo, mouse; details: 48 h post-injection, CDDP 6 mg/kg i.v.
[2] = Plasma pharmacokinetics of platinum
mouse models = mouse models ref 37, 38; cited from earlier work
[3] = system: SKOV-3 ovarian cancer xenografts; test: In vivo anticancer efficacy
[4] = system: SKOV-3 ovarian cancer cells; test: MTS cytotoxicity and combination index, SKOV-3; format: cell-based, human
[5] = system: ES-2 ovarian cancer cells; test: MTS cytotoxicity and combination index, ES-2; format: cell-based
SKOV-3 tumor xenograft = test: NIRF optical animal imaging; design: species or system mouse; details: in vivo NIRF after tail vein injection
[6] = Pt in plasma, two compartment model, i.v.

[NH2][Pt]([NH2])([Cl])[Cl] [CDDP, Cisplatin]
IC50, as CDDP concentration (Hela cells; Hela, first figure of x/y cells): 2.427 µg/mL
Kidney/tumor ratio of Pt concentrations [1]: 4
Liver/tumor ratio of Pt concentrations [1]: 2
Pt of injected dose remaining in plasma ([2]; 30 min after i.v. injection): 5%
Pt of injected dose remaining in plasma ([2]; 24 h after i.v. injection): less than 1%
CL2 [2, 6]: 9.3217 mL/min/kg
t1/2α [2, 6]: 2.64 min
Clearance rate (Cl) relative to nanotherapeutics, both phases ([2]; mouse, in vivo): 20–25 fold
Maximum tolerated dose (MTD) (mouse models): ≤ 4 mg/kg
Medium survival time ([3]; 4 mg/kg CDDP): 15 days
Body weight loss ([3]; 4 mg/kg CDDP i.v. day 0, 4, 8, on day 12): exceeded 20%
WBC counting vs PBS control ([3]; 4 mg/kg CDDP, day 7 after last injection): significantly decreased
Animal death due to severe side effects ([3]; 4 mg/kg CDDP, died on day 12, 13, 15, 16 and 17): all animals
IC50, as CDDP concentration ([4]; SKOV-3, 72 h, first figure of x/y cells): 1.354 µg/mL
IC50, as CDDP concentration ([5]; ES2, 72 h, first figure of x/y cells): 0.92 µg/mL

CC(=O)O[C@H]1C(=O)[C@@]2(C)[C@H]([C@H](OC(=O)c3ccccc3)[C@]3(O)C[C@H](OC(=O)[C@H](O)[C@@H](NC(=O)c4ccccc4)c4ccccc4)C(C)=C1C3(C)C)[C@]1(OC(C)=O)CO[C@@H]1C[C@@H]2O [PTX, paclitaxel]
IC50 (Hela cells; Homo sapiens, HeLa, read-out: IC50, as PTX concentration): 0.02 µg/mL
IC50 ([4]; Homo sapiens, SK-OV-3, 72 h, read-out: IC50, as PTX concentration): 0.032 µg/mL
IC50 ([5]; 72 h, read-out: IC50, as PTX concentration): 0.055 µg/mL

CCCCCCCCCCCCCCCCCCN1/C(=C/C=C/C=C/C2=[N+](CCCCCCCCCCCCCCCCCC)c3ccccc3C2(C)C)C(C)(C)c2ccccc21.[O-][Cl+3]([O-])([O-])[O-] [free DiD]
Tumor fluorescence in vivo (SKOV-3 tumor xenograft): very weak tumor fluorescence
